Measurements as given in ChEMBL document CHEMBL5104103 (J Med Chem, 2022).
Values after ≈ are worked out from the molar mass of the structure shown.

Tests used:
[1] = Clearance in rat at 2 mg/kg, iv; type: ADME, organism-based; details: in vivo
[2] = target: T1, Tyrosine-protein kinase BTK (Homo sapiens, UniProt Q06187); assay: Inhibition of BTK (unknown origin) using peptide substrate in presence of ATP by caliper electrophoresis method
[3] = target: T1, Tyrosine-protein kinase BTK; assay: Inhibition of biotinylated-labeled BTK-selective probe binding to BTK in human Ramos assessed as target occupancy pretreated for 1 hr followed by probe addition measured for 18 hrs by AlphaScreen assay; type: cell-based
[4] = target: Epidermal growth factor receptor (Homo sapiens, UniProt P00533); assay: Inhibition of EGFR (unknown origin) using peptide substrate in presence of ATP by caliper electrophoresis method
[5] = target: Receptor tyrosine-protein kinase erbB-2 (Homo sapiens, UniProt P04626); assay: Inhibition of ERBB2 (unknown origin) using peptide substrate in presence of ATP by caliper electrophoresis method
[6] = target: Receptor tyrosine-protein kinase erbB-4 (Homo sapiens, UniProt Q15303); assay: Inhibition of ERBB4 (unknown origin) using peptide substrate in presence of ATP by caliper electrophoresis method
[7] = target: T2, Tyrosine-protein kinase JAK3 (Homo sapiens, UniProt P52333); assay: Inhibition of JAK3 (unknown origin) using peptide substrate in presence of ATP by caliper electrophoresis method
T2 sequence (P52333 whole entry): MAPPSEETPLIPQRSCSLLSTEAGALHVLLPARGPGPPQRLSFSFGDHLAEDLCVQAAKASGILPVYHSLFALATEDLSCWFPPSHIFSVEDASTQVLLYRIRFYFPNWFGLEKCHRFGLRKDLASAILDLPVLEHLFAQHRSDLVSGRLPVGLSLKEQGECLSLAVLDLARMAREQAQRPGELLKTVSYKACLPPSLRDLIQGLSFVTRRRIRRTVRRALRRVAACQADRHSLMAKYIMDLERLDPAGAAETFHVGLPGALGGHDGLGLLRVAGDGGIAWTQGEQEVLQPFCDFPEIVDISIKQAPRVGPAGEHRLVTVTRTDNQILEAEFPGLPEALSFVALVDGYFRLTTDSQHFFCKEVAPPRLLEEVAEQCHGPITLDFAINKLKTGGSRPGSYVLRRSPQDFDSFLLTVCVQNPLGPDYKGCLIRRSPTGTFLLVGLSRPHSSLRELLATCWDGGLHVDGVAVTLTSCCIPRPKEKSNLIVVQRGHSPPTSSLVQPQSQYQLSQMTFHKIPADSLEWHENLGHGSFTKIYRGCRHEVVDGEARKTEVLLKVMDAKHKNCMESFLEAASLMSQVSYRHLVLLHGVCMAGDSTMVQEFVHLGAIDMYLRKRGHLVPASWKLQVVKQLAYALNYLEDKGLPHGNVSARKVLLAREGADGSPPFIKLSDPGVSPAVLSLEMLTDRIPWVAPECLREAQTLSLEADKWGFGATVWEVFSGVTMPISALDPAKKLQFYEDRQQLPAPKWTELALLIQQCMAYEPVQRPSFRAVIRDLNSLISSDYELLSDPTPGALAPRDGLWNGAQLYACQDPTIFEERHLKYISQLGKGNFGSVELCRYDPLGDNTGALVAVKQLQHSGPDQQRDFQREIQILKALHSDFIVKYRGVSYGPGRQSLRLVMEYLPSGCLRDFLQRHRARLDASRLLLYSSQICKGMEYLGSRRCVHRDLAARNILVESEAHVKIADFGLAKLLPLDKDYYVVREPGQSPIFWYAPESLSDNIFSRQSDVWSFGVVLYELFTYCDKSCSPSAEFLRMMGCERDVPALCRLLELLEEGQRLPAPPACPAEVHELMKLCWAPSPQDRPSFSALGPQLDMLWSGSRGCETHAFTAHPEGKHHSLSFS

[8] = target: T3, Tyrosine-protein kinase Tec (Homo sapiens, UniProt P42680); assay: Inhibition of TEC (unknown origin) using peptide substrate in presence of ATP by caliper electrophoresis method
T3 sequence (P42680 whole entry): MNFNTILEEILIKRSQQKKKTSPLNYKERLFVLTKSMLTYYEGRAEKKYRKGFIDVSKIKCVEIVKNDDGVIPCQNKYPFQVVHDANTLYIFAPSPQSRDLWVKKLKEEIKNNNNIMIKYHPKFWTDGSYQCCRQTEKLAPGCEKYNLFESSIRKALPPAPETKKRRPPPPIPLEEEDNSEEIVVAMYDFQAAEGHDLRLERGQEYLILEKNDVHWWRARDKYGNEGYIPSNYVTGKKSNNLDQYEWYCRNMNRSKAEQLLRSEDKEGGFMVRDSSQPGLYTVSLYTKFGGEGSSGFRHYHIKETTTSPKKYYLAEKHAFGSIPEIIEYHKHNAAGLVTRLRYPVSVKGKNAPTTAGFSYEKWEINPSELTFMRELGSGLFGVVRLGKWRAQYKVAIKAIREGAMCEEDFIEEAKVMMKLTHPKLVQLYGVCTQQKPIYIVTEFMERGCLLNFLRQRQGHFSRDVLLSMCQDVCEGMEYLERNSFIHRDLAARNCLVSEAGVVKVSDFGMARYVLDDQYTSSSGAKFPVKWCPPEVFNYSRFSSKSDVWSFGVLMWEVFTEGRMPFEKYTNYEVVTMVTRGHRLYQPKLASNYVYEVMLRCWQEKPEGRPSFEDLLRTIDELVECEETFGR

[9] = Permeability across apical to basolateral membrane in human Caco-2 cells; type: ADME, cell-based; details: read-out: permeability
[10] = Solubility of compound in PBS at pH 7 by LCMS/MS analysis; type: physicochemical
[11] = Clearance in human liver S9 fraction assessed as measuring per mg protein by LCMS/MS analysis; type: ADME, subcellular; details: read-out: CLH
[12] = Mutagenicity in Salmonella typhimurium by Ames test; type: toxicity; details: salmonella enterica subsp. enterica serovar typhimurium

Chain of Receptor tyrosine-protein kinase erbB-4 (Q15303 whole entry): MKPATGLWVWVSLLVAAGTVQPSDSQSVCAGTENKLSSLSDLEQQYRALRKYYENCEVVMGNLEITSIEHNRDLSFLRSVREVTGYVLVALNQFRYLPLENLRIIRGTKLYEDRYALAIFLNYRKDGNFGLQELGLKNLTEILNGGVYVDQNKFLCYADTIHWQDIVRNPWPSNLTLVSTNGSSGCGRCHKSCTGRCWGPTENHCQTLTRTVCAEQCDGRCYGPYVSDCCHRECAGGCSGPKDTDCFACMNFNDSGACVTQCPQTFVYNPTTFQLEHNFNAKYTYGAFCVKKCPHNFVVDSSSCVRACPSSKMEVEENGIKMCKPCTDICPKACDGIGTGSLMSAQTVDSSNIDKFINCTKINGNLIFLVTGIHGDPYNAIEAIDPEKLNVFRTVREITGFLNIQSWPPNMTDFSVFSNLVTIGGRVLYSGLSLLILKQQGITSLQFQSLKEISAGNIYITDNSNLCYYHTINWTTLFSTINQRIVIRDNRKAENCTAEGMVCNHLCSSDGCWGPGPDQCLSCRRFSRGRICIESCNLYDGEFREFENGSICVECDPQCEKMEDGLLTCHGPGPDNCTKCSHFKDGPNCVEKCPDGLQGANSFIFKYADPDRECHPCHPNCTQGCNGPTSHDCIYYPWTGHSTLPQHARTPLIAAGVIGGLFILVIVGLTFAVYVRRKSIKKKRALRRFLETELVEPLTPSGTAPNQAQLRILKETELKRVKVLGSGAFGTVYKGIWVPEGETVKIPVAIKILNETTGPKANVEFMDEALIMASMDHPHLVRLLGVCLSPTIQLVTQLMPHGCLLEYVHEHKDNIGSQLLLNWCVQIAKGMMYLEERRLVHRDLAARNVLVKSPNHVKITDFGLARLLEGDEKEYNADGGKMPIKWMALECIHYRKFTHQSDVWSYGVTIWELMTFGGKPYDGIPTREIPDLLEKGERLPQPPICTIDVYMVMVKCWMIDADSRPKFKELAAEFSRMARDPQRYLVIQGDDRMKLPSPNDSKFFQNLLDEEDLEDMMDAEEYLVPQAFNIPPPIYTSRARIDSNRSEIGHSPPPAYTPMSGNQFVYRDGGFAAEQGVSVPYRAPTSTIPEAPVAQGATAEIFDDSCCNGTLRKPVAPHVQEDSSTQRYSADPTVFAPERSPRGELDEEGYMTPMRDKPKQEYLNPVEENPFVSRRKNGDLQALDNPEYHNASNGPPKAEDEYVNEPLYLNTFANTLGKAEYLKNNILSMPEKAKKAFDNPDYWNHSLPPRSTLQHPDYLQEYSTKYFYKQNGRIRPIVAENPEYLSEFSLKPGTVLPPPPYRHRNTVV
Chain of Epidermal growth factor receptor (P00533 whole entry): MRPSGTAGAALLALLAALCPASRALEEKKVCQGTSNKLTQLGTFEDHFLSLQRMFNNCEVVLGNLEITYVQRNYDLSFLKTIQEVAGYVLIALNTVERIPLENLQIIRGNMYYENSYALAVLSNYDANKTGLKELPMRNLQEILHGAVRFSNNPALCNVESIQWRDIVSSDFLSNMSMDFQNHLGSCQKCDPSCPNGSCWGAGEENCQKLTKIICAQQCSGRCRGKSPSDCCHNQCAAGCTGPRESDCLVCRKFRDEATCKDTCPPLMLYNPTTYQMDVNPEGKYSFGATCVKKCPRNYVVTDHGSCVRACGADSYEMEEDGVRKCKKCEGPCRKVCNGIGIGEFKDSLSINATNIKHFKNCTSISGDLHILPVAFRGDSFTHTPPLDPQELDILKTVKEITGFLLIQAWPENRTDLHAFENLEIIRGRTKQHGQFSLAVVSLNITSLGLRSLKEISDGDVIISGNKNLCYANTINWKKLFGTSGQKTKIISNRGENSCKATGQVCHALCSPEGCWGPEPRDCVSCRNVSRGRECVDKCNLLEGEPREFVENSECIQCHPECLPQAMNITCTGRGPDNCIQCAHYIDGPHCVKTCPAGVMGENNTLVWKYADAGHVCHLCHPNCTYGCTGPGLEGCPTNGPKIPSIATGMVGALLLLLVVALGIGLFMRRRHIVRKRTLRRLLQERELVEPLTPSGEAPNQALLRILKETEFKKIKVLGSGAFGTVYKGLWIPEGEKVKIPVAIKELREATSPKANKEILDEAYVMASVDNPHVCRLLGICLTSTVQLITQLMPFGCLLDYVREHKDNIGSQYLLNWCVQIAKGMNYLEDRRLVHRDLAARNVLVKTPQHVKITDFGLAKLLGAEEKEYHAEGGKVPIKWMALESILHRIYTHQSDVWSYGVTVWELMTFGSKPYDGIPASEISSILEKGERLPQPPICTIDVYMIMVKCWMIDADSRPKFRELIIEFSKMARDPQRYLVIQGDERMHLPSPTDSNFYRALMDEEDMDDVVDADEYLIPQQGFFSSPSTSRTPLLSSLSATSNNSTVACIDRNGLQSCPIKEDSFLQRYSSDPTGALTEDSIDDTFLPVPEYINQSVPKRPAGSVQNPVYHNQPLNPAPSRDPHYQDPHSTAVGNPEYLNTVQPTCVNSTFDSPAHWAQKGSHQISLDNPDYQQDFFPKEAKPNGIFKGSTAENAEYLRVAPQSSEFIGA
T1 sequence (Q06187 whole entry): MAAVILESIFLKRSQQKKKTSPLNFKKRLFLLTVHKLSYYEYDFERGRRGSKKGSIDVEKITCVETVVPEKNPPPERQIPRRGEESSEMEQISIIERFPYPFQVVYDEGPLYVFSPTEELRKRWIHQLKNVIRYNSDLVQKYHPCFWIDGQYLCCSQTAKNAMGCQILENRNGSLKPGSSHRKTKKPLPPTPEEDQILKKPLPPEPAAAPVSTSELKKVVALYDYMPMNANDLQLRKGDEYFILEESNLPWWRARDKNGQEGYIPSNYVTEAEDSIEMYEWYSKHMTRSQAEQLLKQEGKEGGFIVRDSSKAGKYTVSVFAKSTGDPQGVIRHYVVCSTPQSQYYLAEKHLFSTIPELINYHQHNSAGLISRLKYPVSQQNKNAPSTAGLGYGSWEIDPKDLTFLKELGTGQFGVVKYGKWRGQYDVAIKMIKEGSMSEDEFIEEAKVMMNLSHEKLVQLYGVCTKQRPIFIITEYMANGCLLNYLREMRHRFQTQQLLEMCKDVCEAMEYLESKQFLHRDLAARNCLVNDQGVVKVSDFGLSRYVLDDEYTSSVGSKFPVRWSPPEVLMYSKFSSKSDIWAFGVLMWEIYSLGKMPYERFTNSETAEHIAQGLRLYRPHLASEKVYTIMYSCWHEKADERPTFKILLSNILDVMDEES
Chain of Receptor tyrosine-protein kinase erbB-2 (P04626 whole entry): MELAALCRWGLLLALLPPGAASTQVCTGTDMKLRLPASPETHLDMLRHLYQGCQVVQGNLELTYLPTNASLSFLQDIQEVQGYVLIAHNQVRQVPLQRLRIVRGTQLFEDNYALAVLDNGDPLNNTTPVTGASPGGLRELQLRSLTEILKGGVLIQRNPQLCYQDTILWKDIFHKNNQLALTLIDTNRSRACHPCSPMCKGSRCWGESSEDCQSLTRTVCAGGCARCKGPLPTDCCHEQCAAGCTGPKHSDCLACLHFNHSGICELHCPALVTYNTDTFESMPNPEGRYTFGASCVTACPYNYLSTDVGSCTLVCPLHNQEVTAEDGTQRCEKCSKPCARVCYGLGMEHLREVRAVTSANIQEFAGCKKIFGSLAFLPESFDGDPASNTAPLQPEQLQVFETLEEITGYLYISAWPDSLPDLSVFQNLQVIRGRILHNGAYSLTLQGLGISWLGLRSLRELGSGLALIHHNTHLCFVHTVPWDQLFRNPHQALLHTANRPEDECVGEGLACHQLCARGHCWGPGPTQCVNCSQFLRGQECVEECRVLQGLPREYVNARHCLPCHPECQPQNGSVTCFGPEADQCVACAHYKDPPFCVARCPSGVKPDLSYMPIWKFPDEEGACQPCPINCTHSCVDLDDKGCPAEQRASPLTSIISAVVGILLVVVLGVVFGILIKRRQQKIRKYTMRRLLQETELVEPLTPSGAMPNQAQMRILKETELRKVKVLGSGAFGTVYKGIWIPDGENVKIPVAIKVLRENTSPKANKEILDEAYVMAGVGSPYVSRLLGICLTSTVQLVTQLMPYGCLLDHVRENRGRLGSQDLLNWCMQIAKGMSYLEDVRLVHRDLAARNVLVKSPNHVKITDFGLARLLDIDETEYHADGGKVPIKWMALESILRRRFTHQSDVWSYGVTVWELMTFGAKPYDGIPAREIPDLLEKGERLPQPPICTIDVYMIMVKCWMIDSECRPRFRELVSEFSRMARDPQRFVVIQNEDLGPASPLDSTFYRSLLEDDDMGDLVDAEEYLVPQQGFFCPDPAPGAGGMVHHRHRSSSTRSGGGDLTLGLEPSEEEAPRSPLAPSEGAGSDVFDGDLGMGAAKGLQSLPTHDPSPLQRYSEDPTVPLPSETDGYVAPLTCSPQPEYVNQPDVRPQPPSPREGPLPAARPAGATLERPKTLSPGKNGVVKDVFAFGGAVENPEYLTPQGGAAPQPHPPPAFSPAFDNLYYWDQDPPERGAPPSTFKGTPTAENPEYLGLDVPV

clearance [1] | IC50 [2] | IC50 [3] | IC50 [4] | IC50 [5] | IC50 [6] | IC50 [7] | IC50 [8] | Papp A→B [9] | solubility [10] | microsomal CLint [11] | SMILES | Activity [12]
120 mL/min/kg | 72 nM | 35.9 nM | 3000 nM | > 5000 nM | 177 nM | > 5000 nM | 4.5 nM | 6.8 ×10⁻⁶ cm/s | 215 µM (≈ 131 µg/mL) | 152 µL/min/mg | CC(C)(/C=C(/C#N)C(=O)N1CCC[C@@H]1Cn1nc(-c2ccc(Oc3ccccc3)cc2F)c2c(N)ncnc21)N1CCOCC1 | –
– | 1.8 nM | 30.1 nM | 368 nM | 1080 nM | 22 nM | > 5000 nM | 1.9 nM | 0.5 ×10⁻⁶ cm/s | 2.1 µM (≈ 1.13 µg/mL) | 77 µL/min/mg | CC(C)(C)/C=C(\C#N)C(=O)N1CCC[C@@H](n2nc(-c3ccc(Oc4ccccc4)cc3F)c3c(N)ncnc32)C1 [ATUZABRUTINIB] | Non-Toxic
119 mL/min/kg | – | – | 980 nM | 4350 nM | 41 nM | > 5000 nM | 0.5 nM | 1 ×10⁻⁶ cm/s | 315 µM (≈ 196 µg/mL) | 30 µL/min/mg | CN1CCN(C(C)(C)/C=C(\C#N)C(=O)N2CCC[C@@H](n3nc(-c4ccc(Oc5ccccc5)cc4F)c4c(N)ncnc43)C2)CC1 | –
